Measurements reported in US20220002728A1, “METHOD FOR PREVENTING OXIDATION OF POLYPHENOL BY MEANS OF APTAMER, MATERIAL THEREOF, AND USE THEREOF” (Nexmos Co., LTD, priority 2018, published 2022).

Assay: WST-1 assay of EGCG oxidation delay by aptamer
Format: physicochemical
Settings: for comparison of EGCG oxidation delay effect of aptamer K4 and aptamer K5: 20 μM aptamer, 500 μM EGCG, 30 minutes, WST-1 assay (FIG. 5); for concentration dependence of EGCG oxidation delay (reduction of WST-1 delayed): 5, 10 and 20 uM aptamer with EGCG, WST-1 assay (FIGS. 3 and 4); for oxidation of EGCG delayed: at 20 uM aptamer, 500 mM EGCG (so in the source), room temperature 30 minutes, WST-1, 440 nm absorbance measured for 16 hours (FIG. 3, FIG. 4)
Procedure: FIG. 1 is a graph showing the effect of delaying EGCG oxidation in aptamer K1 (SEQ ID NO: 1) to K9 (SEQ ID NO: 9) of the present invention. Nine types of aptamer K from aptamer K1 to aptamer K9 that bind to EGCG were prepared in the same manner as described above. After 20 μM aptamer K1 to K9 and 500 μM EGCG were reacted for 30 minutes, respectively, WST-1 assay was performed. The degree of delaying EGCG oxidation of each aptamer K was compared,
The aptamer (aptamers of SEQ ID NOs: 1 to 9) of the present invention reacting specifically with the EGCG obtained through the SELEX was dissolved in a folding buffer (1 mM MgCl2 in PBS) and then dissolved at 95° C.
After reacting 500 uM EGCG and one of the prepared 20 μM aptamers K1 to K9 and for 30 minutes, WST-1 assay was performed. The degree of EGCG oxidation delay of each aptamer K was compared.
500 mM EGCG and 5, 10, and 20 uM of the prepared aptamer K4 were reacted at room temperature for 30 minutes, respectively, and then WST-1 assay was performed. Prepared sample and WST-1([…]) was reacted to measure the formazan produced and with the plate reader, 440 nm absorbance was measured for 16 hours.
The aptamer K5 (aptamer of SEQ ID NO: 5) that specifically reacts with EGCG obtained through the SELEX was prepared in the same manner as described above and was tested for the effect of delaying EGCG oxidation.
Aptamers K4 and K5 binding to the EGCG were prepared in the same manner as described above. 20 μM aptamer K4, or aptamer K5, and 500 μM EGCG were reacted for 30 minutes, respectively, followed by WST-1 assay. It was confirmed that the EGCG oxidation delay effect of 20 μM aptamer K4 and aptamer K5 was similar (FIG. 5).

Q: With “aptamer K4: DNA aptamer binding EGCG, 30 mer: CGACGACAGGAGGTGCGGCCCCGGCAGACC (DNA, backbone and methylation of C not given here)” as the substance, how does the “comparison of EGCG oxidation delay effect of aptamer K4 and aptamer K5” value read?
A: The value was “similar”.

Q: What about the “concentration dependence of EGCG oxidation delay (reduction of WST-1 delayed)” value of the same substance?
A: Its value is “delayed (about 33% at 20 uM) depending on the concentration”.

Q: What about the “oxidation of EGCG delayed” value of the same substance?
A: The value was “about 33%”.

Q: With “aptamer K5: DNA aptamer binding EGCG, 29 mer: ACGCATGCCGGGCGCGCTCCCTGTCGTCC (DNA, backbone and methylation of C not given here)” as the substance, how does the “comparison of EGCG oxidation delay effect of aptamer K4 and aptamer K5” value read?
A: The value was “similar”.

Q: And the “concentration dependence of EGCG oxidation delay (reduction of WST-1 delayed)” value?
A: The value was “delayed (about 33% at 20 uM) depending on the concentration”.

Q: What about the “concentration dependence of EGCG oxidation delay (reduction of WST-1 delayed)” value (listed as 1(5)) of the same substance?
A: The value was “delayed depending on the concentration”.

Q: What about the “oxidation of EGCG delayed” value of the same substance?
A: Its value is “about 33%”.
